Drawing on patent US8901087B2, “Selective glycosidase inhibitors and uses thereof” (priority 2010, dated 2014), this text covers Ki for 37 compounds.

The target in the first assay is human O-GlcNAcase (Homo sapiens (Human), UniProt O60502). As to the kind of experiment: Fluorescence-based assay for determination of KI values for inhibition of O-GlcNAcase activity. In kind it is biochemical.
human O-GlcNAcase, sequence (O60502 whole entry): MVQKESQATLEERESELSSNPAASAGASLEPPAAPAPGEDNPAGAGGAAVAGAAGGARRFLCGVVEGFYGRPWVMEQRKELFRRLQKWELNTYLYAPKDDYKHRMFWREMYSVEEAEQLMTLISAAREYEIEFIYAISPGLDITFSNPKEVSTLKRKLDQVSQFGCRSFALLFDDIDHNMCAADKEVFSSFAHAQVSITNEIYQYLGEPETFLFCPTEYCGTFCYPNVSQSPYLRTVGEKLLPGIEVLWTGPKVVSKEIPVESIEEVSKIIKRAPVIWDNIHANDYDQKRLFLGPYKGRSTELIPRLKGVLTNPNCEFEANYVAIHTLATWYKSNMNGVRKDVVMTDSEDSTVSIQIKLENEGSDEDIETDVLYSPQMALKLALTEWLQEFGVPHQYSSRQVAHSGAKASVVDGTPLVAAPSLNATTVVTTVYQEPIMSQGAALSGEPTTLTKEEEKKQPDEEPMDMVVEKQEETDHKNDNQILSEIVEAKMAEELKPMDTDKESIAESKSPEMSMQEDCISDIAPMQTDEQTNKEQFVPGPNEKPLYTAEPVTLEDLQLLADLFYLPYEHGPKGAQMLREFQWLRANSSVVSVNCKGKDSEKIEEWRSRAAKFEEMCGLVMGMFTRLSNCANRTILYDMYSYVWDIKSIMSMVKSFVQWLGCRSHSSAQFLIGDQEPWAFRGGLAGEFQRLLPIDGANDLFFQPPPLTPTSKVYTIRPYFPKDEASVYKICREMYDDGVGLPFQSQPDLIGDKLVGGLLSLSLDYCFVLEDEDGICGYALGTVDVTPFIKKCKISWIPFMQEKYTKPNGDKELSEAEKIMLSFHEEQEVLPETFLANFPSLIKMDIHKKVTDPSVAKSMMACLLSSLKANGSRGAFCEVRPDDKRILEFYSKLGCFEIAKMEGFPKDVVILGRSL
Settings: not given
On the procedure:
Assay for Determination of KI Values for Inhibition of O-GlcNAcase Activity
Experimental Procedure for Kinetic Analyses
Enzymatic reactions are carried out in a reaction containing 50 mM NaH2PO4, 100 mM NaCl and 0.1% BSA (pH 7.0) using 2 mM 4-Methylumbelliferyl N-acetyl-β-D-glucosaminide dihydrate (Sigma M2133) dissolved in ddH2O, as a substrate. The amount of purified human O-GlcNAcase enzyme used in the reaction is 0.7 nM. Test compound of varying concentrations is added to the enzyme prior to initiation of the reaction. The reaction is performed at room temperature in a 96-well plate and is initiated with the addition of substrate. […] The slope of product production is determined for each concentration of compound tested and plotted, using standard curve fitting algorithms for sigmoidal dose response curves. The values for a four parameter logistic curve fit of the data are determined.
With `CON(C)C1=N[C@@H]2[C@@H](O)[C@H](O)[C@@H]([C@H](C)O)O[C@@H]2S1` (single isomer, unassigned) [Example 51], the affinity corresponds to a Ki of 5.1 nM.

Staying with this assay, now noted: purified human O-GlcNAcase, 4-Methylumbelliferyl N-acetyl-β-D-glucosaminide substrate, pH 7.0, Cheng-Prusoff; read-out: Fluorescence-based hOGA Ki.
As for `CN(C)C1=N[C@@H]2[C@@H](O)[C@H](O)[C@@H](C(C)(O)C(F)(F)F)O[C@@H]2S1` (mixture of isomers) [Example 203, (3aR,5S,6S,7R,7aR)-2-(dimethylamino)-5-((S)-1,1,1-trifluoro-2-hydroxypropan-2-yl)-5,6,7,7a-tetrahydro-3aH-pyrano[3,2-d]thiazole-6,7-diol], the Ki (commonly the equilibrium dissociation constant of an inhibitor or competing ligand from its target) was 3.16 nM.

For `CNC1=N[C@@H]2[C@@H](O)[C@H](O)[C@@H]([C@H](C)O)O[C@@H]2S1` (single isomer, unassigned) [Example 13], the inhibition constant (Ki) worked out at 0.4 nM.

On to `C=CC[C@H](O)[C@H]1O[C@@H]2SC(NC)=N[C@@H]2[C@@H](O)[C@@H]1O` (single isomer, unassigned) [Example 25], for which the inhibitory constant (Ki) came out at 0.7 nM.

Turning to `CCNC1=N[C@@H]2[C@@H](O)[C@H](O)[C@@H]([C@H](C)O)O[C@@H]2S1` (single isomer, unassigned) [Example 27], the Ki stood at 0.12 nM.

Regarding `C=C[C@H](O)[C@H]1O[C@@H]2SC(NCCC)=N[C@@H]2[C@@H](O)[C@@H]1O` (single isomer, unassigned) [Example 42], the inhibitory constant (Ki) is 1.03 nM.

Regarding `CCCNC1=N[C@H]2C(O[C@H]([C@@H](O)CC)[C@@H](O)[C@@H]2O)S1` (single isomer, unassigned) [Example 47], the Ki is 6.4 nM.

In the case of `C[C@H](O)[C@H]1O[C@@H]2SC(NCC3CC3)=N[C@@H]2[C@@H](O)[C@@H]1O` (single isomer, unassigned) [Example 53], the inhibition constant (Ki) turned out to be 0.7 nM.

Take `CCN(C)C1=N[C@H]2C(O[C@H]([C@H](C)O)[C@@H](O)[C@@H]2O)S1` (single isomer, unassigned) [Example 57]: the inhibitory constant (Ki) came out at 0.33 nM.

For `C=CC(O)C1O[C@@H]2SC(N(C)CC)=N[C@@H]2[C@@H](O)[C@@H]1O` (single isomer, unassigned) [Example 61], the Ki came to 2.46 nM.

Turning to `C=C[C@H](O)[C@H]1O[C@@H]2SC(N(C)C)=N[C@@H]2[C@@H](O)[C@@H]1O` (single isomer, unassigned) [Example 63], the Ki was 0.22 nM.

With `C=C(C)[C@H](O)[C@H]1O[C@@H]2SC(N(C)C)=N[C@@H]2[C@@H](O)[C@@H]1O` (single isomer, unassigned) [Example 65], the inhibitory constant (Ki) was determined as 0.45 nM.

On to `C=CC[C@H](O)[C@H]1O[C@@H]2SC(N(C)C)=N[C@@H]2[C@@H](O)[C@@H]1O` (single isomer, unassigned) [Example 67], for which the inhibitory constant (Ki) turned out to be 1.25 nM.

For the compound `CCC[C@H](O)[C@H]1O[C@@H]2SC(N(C)C)=N[C@@H]2[C@@H](O)[C@@H]1O` (single isomer, unassigned) [Example 69], the inhibition constant (Ki) came out at 9.36 nM.

As to `CCCC[C@H](O)[C@H]1O[C@@H]2SC(N(C)C)=N[C@@H]2[C@@H](O)[C@@H]1O` (single isomer, unassigned) [Example 71], the inhibitory constant (Ki) is 9.12 nM.

As to `C[C@H](O)[C@H]1O[C@@H]2SC(N3CCC3)=N[C@@H]2[C@@H](O)[C@@H]1O` (single isomer, unassigned) [Example 76], the Ki came out at 0.18 nM.

Consider `C=C[C@H](O)[C@H]1O[C@@H]2SC(N3CCC3)=N[C@@H]2[C@@H](O)[C@@H]1O` (single isomer, unassigned) [Example 80], for which the inhibitory constant (Ki) was 0.5 nM.

For `C=CC[C@H](O)[C@H]1O[C@@H]2SC(N3CCC3)=N[C@@H]2[C@@H](O)[C@@H]1O` (single isomer, unassigned) [Example 82], the Ki was 5.84 nM.

On to `C[C@H](O)[C@H]1O[C@@H]2SC(N3CCCC3)=N[C@@H]2[C@@H](O)[C@@H]1O` (single isomer, unassigned) [Example 91], for which the Ki is 0.53 nM.

As to `CNC1=N[C@@H]2[C@@H](O)[C@H](O)[C@@H]([C@@H](C)F)O[C@@H]2S1` (single isomer, unassigned) [Example 181], the Ki was determined as 0.8 nM.

`CCN(C)C1=N[C@@H]2[C@@H](O)[C@H](O)[C@@H]([C@@H](O)C(F)(F)F)O[C@@H]2S1` (single isomer, unassigned) [Example 211]: the inhibition constant Ki turned out to be 0.44 nM.

As for `C[C@H](O)[C@H]1O[C@@H]2SC(N(C)C)=N[C@@H]2[C@@H](O)[C@@H]1O` [Example 1, (3aR,5R,6S,7R,7aR)-2-(Dimethylamino)-5-((S)-1-hydroxyethyl)-5,6,7,7a-tetrahydro-3aH-pyrano[3,2-d]thiazole-6,7-diol], the Ki worked out at 0.17 nM.

On to `CCCNC1=N[C@@H]2[C@@H](O)[C@H](O)[C@@H]([C@H](C)O)O[C@@H]2S1` [Example 2, (3aR,5R,6S,7R,7aR)-5-((S)-1-hydroxyethyl)-2-(propylamino)-5,6,7,7a-tetrahydro-3aH-pyrano[3,2-d]thiazole-6,7-diol], for which the inhibition constant Ki worked out at 0.05 nM.

Turning to `CNC1=N[C@@H]2[C@@H](O)[C@H](O)[C@@H](C(C)(C)O)O[C@@H]2S1` [Example 3, (3aR,5S,6S,7R,7aR)-5-(2-Hydroxypropan-2-yl)-2-(methylamino)-5,6,7,7a-tetrahydro-3aH-pyrano[3,2-d]thiazole-6,7-diol], the inhibition constant (Ki) was 0.9 nM.

Consider `CN(C)C1=N[C@@H]2[C@@H](O)[C@H](O)[C@@H](C(C)(C)O)O[C@@H]2S1` [Example 4, (3aR,5S,6S,7R,7aR)-2-(dimethylamino)-5-(2-hydroxypropan-2-yl)-5,6,7,7a-tetrahydro-3aH-pyrano[3,2-d]thiazole-6,7-diol], for which the Ki came to 3.1 nM.

In the case of `CC[C@H]1O[C@@H]2SC(NC)=N[C@@H]2[C@@H](O)[C@@H]1O` [Example 8, (3aR,5R,6S,7R,7aR)-5-Ethyl-2-(methylamino)-5,6,7,7a-tetrahydro-3aH-pyrano[3,2-d]thiazole-6,7-diol], the Ki stood at 0.68 nM.

Take `CN(C)C1=N[C@@H]2[C@@H](O)[C@H](O)[C@@H]([C@@H](O)C(F)(F)F)O[C@@H]2S1` [Example 11, (3aR,5S,6S,7R,7aR)-2-(dimethylamino)-5-((R)-2,2,2-trifluoro-1-hydroxyethyl)-5,6,7,7a-tetrahydro-3aH-pyrano[3,2-d]thiazole-6,7-diol]: the Ki came out at 0.3 nM.

As for `CC(C)(O)[C@H]1O[C@@H]2SC(N3CCC3)=N[C@@H]2[C@@H](O)[C@@H]1O` [Example 77, (3aR,5S,6S,7R,7aR)-2-(azetidin-1-yl)-5-(2-hydroxypropan-2-yl)-5,6,7,7a-tetrahydro-3aH-pyrano[3,2-d]thiazole-6,7-diol], the inhibition constant (Ki) came out at 16.3 nM.

Regarding `CNC1=N[C@@H]2[C@@H](O)[C@H](O)[C@@H]([C@@H](O)C(F)(F)F)O[C@@H]2S1` [Example 95, (3aR,5S,6S,7R,7aR)-2-(methylamino)-5-((R)-2,2,2-trifluoro-1-hydroxyethyl)-5,6,7,7a-tetrahydro-3aH-pyrano[3,2-d]thiazole-6,7-diol], the Ki is 0.16 nM.

Regarding `CCCNC1=N[C@@H]2[C@@H](O)[C@H](O)[C@@H]([C@@H](O)C(F)(F)F)O[C@@H]2S1` [Example 97, (3aR,5S,6S,7R,7aR)-2-(propylamino)-5-((R)-2,2,2-trifluoro-1-hydroxyethyl)-5,6,7,7a-tetrahydro-3aH-pyrano[3,2-d]thiazole-6,7-diol], the Ki amounted to 0.17 nM.

As for `CON(C)C1=N[C@@H]2[C@@H](O)[C@H](O)[C@@H]([C@@H](O)C(F)(F)F)O[C@@H]2S1` [Example 98, (3aR,5S,6S,7R,7aR)-2-(methoxy(methyl)amino)-5-((R)-2,2,2-trifluoro-1-hydroxyethyl)-5,6,7,7a-tetrahydro-3aH-pyrano[3,2-d]thiazole-6,7-diol], the Ki came out at 1.43 nM.

In the case of `C[C@@H](O)[C@H]1O[C@@H]2SC(N(C)C)=N[C@@H]2[C@@H](O)[C@@H]1O` [Example 104, (3aR,5R,6S,7R,7aR)-2-(dimethylamino)-5-((R)-1-hydroxyethyl)-5,6,7,7a-tetrahydro-3aH-pyrano[3,2-d]thiazole-6,7-diol], the Ki was found to be 3.63 nM.

For `CCNC1=N[C@@H]2[C@@H](O)[C@H](O)[C@@H]([C@@H](O)CC)O[C@@H]2S1` [Example 105, (3aR,5R,6S,7R,7aR)-2-(ethylamino)-5-((S)-1-hydroxypropyl)-5,6,7,7a-tetrahydro-3aH-pyrano[3,2-d]thiazole-6,7-diol], the Ki turned out to be 3.4 nM.

With `C[C@H](O)[C@H]1O[C@@H]2SC(NCCF)=N[C@@H]2[C@@H](O)[C@@H]1O` [Example 141, (3aR,5R,6S,7R,7aR)-2-(2-Fluoroethylamino)-5-((S)-1-hydroxyethyl)-5,6,7,7a-tetrahydro-3aH-pyrano[3,2-d]thiazole-6,7-diol], the inhibitory constant (Ki) came to 0.82 nM.

Turning to `CNC1=N[C@@H]2[C@@H](O)[C@H](O)[C@@H](C(C)(O)C(F)(F)F)O[C@@H]2S1` (stereo partly drawn) [Example 159, (3aR,5S,6S,7R,7aR)-2-(methylamino)-5-(1,1,1-trifluoro-2-hydroxypropan-2-yl)-5,6,7,7a-tetrahydro-3aH-pyrano[3,2-d]thiazole-6,7-diol], the Ki stood at 1.25 nM.

On to `CNC1=N[C@@H]2[C@@H](O)[C@H](O)[C@@H]([C@@H](O)C(F)F)O[C@@H]2S1` [Example 191, (3aR,5S,6S,7R,7aR)-5-((R)-2,2-difluoro-1-hydroxyethyl)-2-(methylamino)-5,6,7,7a-tetrahydro-3aH-pyrano[3,2-d]thiazole-6,7-diol], for which the inhibitory constant (Ki) worked out at 0.14 nM.

For `O[C@H]1[C@H](O)[C@@H]([C@H](O)C(F)(F)F)O[C@@H]2SC(NCCF)=N[C@H]12` [Example 215, (3aR,5S,6S,7R,7aR)-2-(2-fluoroethylamino)-5-((S)-2,2,2-trifluoro-1-hydroxyethyl)-5,6,7,7a-tetrahydro-3aH-pyrano[3,2-d]thiazole-6,7-diol], the Ki came out at 1.8 nM.
